Assay results as given in the supplement of paper PMC10307832.

Columns and labels:
Assay in all cases: relative viability (nuclei count vs DMSO), 5 days (fraction); higher = more cells survive
[1] = compound: CC1CC(=O)N(C2=CN=C(N=C2N1C3CCCC3)NC4=C(C=C(C=C4)C(=O)NC5CCN(CC5)C)OC)C [NPK76-II-72-1] + COc1cccc2cc(-c3nc([C@H]4CC[C@H](C(=O)O)CC4)n4ncnc(N)c34)[nH]c12 [OSI-027] (partner 0.5 µM)
Procedure, shortened: (§1)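 For relative viability, nuclei counts in treated wells were divided by those in vehicle wells. Lung cancer cell lines had been pin-tool dosed in 1536-well plates the day after seeding and cultured for 5 days, then fixed and stained in one step (final 0.05% Triton X-100, 1% formaldehyde, 1 ug/ml Hoechst) and imaged at 4×. Doses were one drug alone or a fixed anchor-drug dose plus five library-drug doses (not always all listed) in √10 steps, and values are duplicate-plate medians.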

[2] = compound: CC1CC(=O)N(C2=CN=C(N=C2N1C3CCCC3)NC4=C(C=C(C=C4)C(=O)NC5CCN(CC5)C)OC)C [NPK76-II-72-1] + CS(=O)(=O)N1CCN(Cc2cc3nc(-c4cccc5[nH]ncc45)nc(N4CCOCC4)c3s2)CC1 [Pictilisib] (partner 1 µM)
Procedure, shortened: as §1

[3] = compound: CC1CC(=O)N(C2=CN=C(N=C2N1C3CCCC3)NC4=C(C=C(C=C4)C(=O)NC5CCN(CC5)C)OC)C [NPK76-II-72-1] + C[C@]1(O)C[C@@H](c2nc(-c3ccc4ccc(-c5ccccc5)nc4c3)c3c(N)nccn32)C1 [Linsitinib] (partner 1 µM)
Procedure, shortened: as §1

[4] = compound: CC1CC(=O)N(C2=CN=C(N=C2N1C3CCCC3)NC4=C(C=C(C=C4)C(=O)NC5CCN(CC5)C)OC)C [NPK76-II-72-1] + Cc1cc(Nc2cc(N3CCN(C)CC3)nc(Sc3ccc(NC(=O)C4CC4)cc3)n2)n[nH]1 [Tozasertib] (partner 0.1 µM)
Procedure, shortened: as §1

Row | Cell Line | relative viability ([1]; first compound 0.01 µM) | relative viability ([1]; first compound 0.03162 µM) | relative viability ([1]; first compound 0.1 µM) | relative viability ([1]; first compound 0.3162 µM) | relative viability ([1]; first compound 1 µM) | relative viability ([2]; first compound 0.03162 µM) | relative viability ([2]; first compound 0.1 µM) | relative viability ([2]; first compound 1 µM) | relative viability ([3]; first compound 0.03162 µM) | relative viability ([3]; first compound 0.1 µM) | relative viability ([3]; first compound 1 µM) | relative viability ([4]; first compound 0.01 µM) | relative viability ([4]; first compound 0.03162 µM) | relative viability ([4]; first compound 0.1 µM) | relative viability ([4]; first compound 0.3162 µM) | relative viability ([4]; first compound 1 µM) | relative viability ([2]; first compound 0.01 µM) | relative viability ([2]; first compound 0.3162 µM) | relative viability ([3]; first compound 0.01 µM) | relative viability ([3]; first compound 0.3162 µM)
1 | HCC-78 | 0.511 | 0.467 | 0.356 | 0.496 | 0.404 | 0.233 | 0.207 | 0.182 | 0.529 | 0.487 | 0.516 | 0.446 | 0.407 | 0.408 | 0.368 | 0.429 |  |  |  | 
2 | HCC-366 | 0.939 | 0.998 | 1.08 | 0.863 | 0.888 | 0.117 | 0.128 | 0.186 | 0.688 | 0.704 | 0.777 | 0.204 | 0.156 | 0.111 | 0.118 | 0.169 | 0.117 | 0.196 | 0.54 | 0.707
3 | HCC-827 | 0.75 | 0.788 | 0.835 | 0.597 | 0.801 | 1.03 | 0.98 | 1.08 | 0.91 | 0.939 | 1.01 | 0.399 | 0.416 | 0.417 | 0.409 | 0.476 | 0.954 | 0.929 | 0.891 | 0.855
4 | HOP-62 | 0.784 | 0.919 | 0.917 | 0.722 | 0.978 | 0.766 | 0.778 | 0.613 | 1.05 | 0.922 | 0.89 | 0.333 | 0.382 | 0.397 | 0.328 | 0.413 | 0.606 | 0.696 | 0.908 | 1.05
5 | IA-LM |  |  |  |  |  | 0.363 | 0.33 | 0.334 | 0.684 | 0.435 | 0.809 |  |  |  |  |  | 0.314 | 0.243 | 0.582 | 0.597
6 | LC-2-ad | 0.768 | 0.885 | 0.826 | 0.791 | 0.954 | 0.515 | 0.445 | 0.428 | 0.767 | 0.854 | 0.834 | 0.469 | 0.491 | 0.436 | 0.404 | 0.493 | 0.428 | 0.386 | 0.78 | 0.801
7 | LCLC-97TM1 | 0.479 | 0.67 | 0.407 | 0.45 | 0.577 | 0.251 | 0.168 | 0.207 | 0.16 | 0.167 | 0.156 | 0.177 | 0.31 | 0.215 | 0.188 | 0.228 |  | 0.173 |  | 0.192
8 | LCLC-103H | 0.458 | 0.41 | 0.477 | 0.439 | 0.413 | 0.761 | 0.671 | 0.679 | 1.16 | 1.02 | 1.01 | 0.46 | 0.508 | 0.437 | 0.466 | 0.488 | 0.692 | 0.609 | 1.04 | 1.03
9 | LK-2 | 0.157 | 0.227 | 0.206 | 0.201 | 0.233 | 0.567 | 0.636 | 0.582 | 0.69 | 0.729 | 0.743 | 0.159 | 0.195 | 0.183 | 0.187 | 0.213 | 0.582 |  | 0.543 | 0.415
10 | LOU-NH91 | 0.667 | 0.704 | 0.713 | 0.654 | 0.813 | 0.507 | 0.46 | 0.597 | 0.932 | 0.984 | 1.04 | 0.688 | 0.674 | 0.628 | 0.576 | 0.741 | 0.501 | 0.502 | 0.941 | 0.681
11 | NCI-H522 | 0.72 | 0.969 | 0.681 | 0.623 | 0.846 |  |  |  |  |  |  | 0.617 | 0.443 | 0.562 | 0.55 | 0.54 |  |  |  | 
12 | NCI-H1299 |  |  |  |  |  | 0.738 | 0.839 | 0.777 | 0.96 | 1.01 | 1.03 |  |  |  |  |  | 0.79 | 0.702 | 0.999 | 0.98
13 | NCI-H1563 | 0.698 | 0.804 | 0.739 | 0.749 | 0.778 | 0.66 | 0.602 | 0.665 | 1.29 | 1.11 | 1.2 |  |  |  |  |  | 0.658 | 0.599 | 1.07 | 1.16
14 | NCI-H1623 | 0.422 | 0.405 | 0.432 | 0.362 | 0.461 |  |  |  |  |  |  | 0.467 | 0.434 | 0.353 | 0.341 | 0.467 |  |  |  | 
15 | NCI-H1648 | 0.239 | 0.244 |  |  | 0.26 |  |  |  |  |  |  | 0.523 | 0.431 |  |  | 0.474 |  |  |  | 
16 | NCI-H1650 | 0.609 | 0.716 | 0.576 | 0.414 | 0.738 | 0.534 | 0.596 | 0.649 |  |  |  | 0.397 | 0.444 | 0.429 | 0.501 | 0.386 | 0.569 | 0.547 |  | 
17 | NCI-H1703 |  |  |  |  |  | 0.224 | 0.298 | 0.254 | 0.65 | 0.621 | 0.996 |  |  |  |  |  | 0.257 | 0.283 | 0.428 | 0.645
18 | NCI-H1792 | 0.701 |  | 0.734 | 0.753 | 0.802 | 0.285 | 0.26 | 0.286 | 0.629 | 0.52 | 0.591 |  |  |  |  |  | 0.353 | 0.29 | 0.615 | 0.492
19 | NCI-H2170 | 0.73 | 0.759 | 0.716 | 0.493 | 0.798 | 0.357 | 0.279 | 0.333 |  |  |  | 0.688 | 0.708 | 0.69 | 0.527 | 0.812 | 0.281 |  |  | 
20 | NCI-H2342 | 0.632 | 0.572 | 0.632 | 0.435 | 0.58 |  |  |  |  |  |  | 0.621 | 0.467 | 0.498 | 0.437 | 0.537 |  |  |  | 
21 | SW 900 | 0.542 | 0.475 | 0.513 | 0.601 | 0.713 |  |  |  |  |  |  | 0.675 | 0.524 | 0.482 | 0.536 | 0.644 |  |  |  | 
